Source: US6479283B1, “Stimulation, culture and preservation of pancreatic cells” (Ascendia AB, priority 1997, dated 2002)

Experiments:
[1] = tested on: fibroblast growth in ICC cultures; test: Fibroblast growth in ICC cultures; format: cell-based, porcine; settings: 1 mM DG
Source text: (§1) (3) ICC islets cultured in medium RPMI 1640+10 mm nicotine amide+10% human serum (HS)+9% of 1.5% HPMC in saline+1 mm 2-deoxyglucose (DG).

[2] = tested on: naked mice with induced diabetes; test: Transplantation of cultured ICC in naked mice with alloxan-induced diabetes; format: in vivo; settings: second series, 1×3 μl ICC; 1 mM DG added to HPMC culture medium
Source text: Transplantation in Naked Mice with Induced Diabetes
Diabetes was induced in naked mice by injection of alloxan (Dunn, J S, and McLetchie, Lancet 2 (1943) 384; Boquist L, Acta Pathol. Microbiol. Scand., Sect. A, 88 (1980) 201) resulting in […] within a few days indicated by blood glucose levels >25 mm. After about one week intact ICCs from other mice of this strain were transplanted to the […] anaesthetized animals. An incision was made in the abdominal wall and the left kidney was mobilized. A small hole was made in the kidney's thin […] capsule and a pipette containing ICC was carefully inserted therethrough under the capsule. The ICCs were deposited within the capsule, the pipette withdrawn and the abdominal wall and skin sutured.
In a first series of experiments an ICC standard dose of 2×3 μl corresponding to 600 ICC was injected. Three types of ICCs were compared:
(1) control, i.e. ICC islets cultured in medium RPMI 1640+10 mm nicotine amide+10% human serum (HS);
(2) ICC islets cultured in medium RPMI 1640+10 mm nicotine amide+10% human serum (HS)+9% of 1.5% HPMC in saline; […]
Numbers in square brackets indicate number of animals. […] Blood glucose was determined on day 7 and in weekly intervals thereafter. The arrow indicates nephrectomy, i.e., the kidney with ICC transplant was removed and blood glucose was determined one week thereafter. […]

[3] = tested on: fetal porcine ICCs; test: Differentiation of fetal porcine ICCs (glucose stimulated release of insulin), separate experiments; format: cell-based
Source text: as §1

O=CC[C@@H](O)[C@H](O)[C@H](O)CO [DG, 2-deoxyglucose]
Fibroblast growth [1]: reduces fibroblast growth | Effect of DG on the reduction of blood glucose levels [2]: clearly beneficial effect on the reduction of blood glucose levels | Differentiation giving rise to glucose stimulated release of insulin [3]: does not affect the differentiation
